From PubChem BioAssay AID330 (DTP/NCI, 2004)
Where “and” joins values, the source holds several entries; their conditions need not be identical. Equal entries are not always repeated. Toxic doses and inconclusive results are not listed. Rule for the calls: active = survival T/C of 150% or more; inactive = T/C below 125% in these data.

Test system: P388 leukemia ip, CD2F1 mice, survival T/C
Experiment: NCI In Vivo Anticancer Drug Screen. Data for tumor model P388 Leukemia (intraperitoneal) in CD2F1 (CDF1) mice
Conditions: endpoint: median survival time, higher = longer survival
Method in brief: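 Mice carrying the transplanted tumor received test compound or vehicle. Survival was recorded in each group, and the value is the treated-group measurement divided by that of the vehicle-treated control group.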

[1] = dose: 100.0 mg/kg/injection, schedule: Q04DX003 (ip), vehicle: Klucel (hydroxypropylcellulose) (HPC)
[2] = dose: 50.0 mg/kg/injection, schedule: Q01DX009 (ip), vehicle: saline with Tween-80
[3] = dose: 100.0 mg/kg/injection, schedule: Q01DX009 (ip), vehicle: saline with Tween-80
[4] = dose: 100.0 mg/kg/injection, schedule: Q04DX003 (ip), vehicle: saline with Tween-80
[5] = dose: 200.0 mg/kg/injection, schedule: Q04DX003 (ip), vehicle: saline with Tween-80
[6] = dose: 400.0 mg/kg/injection, schedule: Q04DX003 (ip), vehicle: saline with Tween-80
[7] = dose: 200.0 mg/kg/injection, schedule: Q01DX009 (ip), vehicle: saline with Tween-80
[8] = dose: 15.0 mg/kg/injection, schedule: Q01DX005 (ip), vehicle: Klucel (hydroxypropylcellulose) (HPC)
[9] = dose: 30.0 mg/kg/injection, schedule: Q01DX005 (ip), vehicle: Klucel (hydroxypropylcellulose) (HPC)
[10] = dose: 50.0 mg/kg/injection, schedule: Q01DX005 (ip), vehicle: saline with Tween-80
[11] = dose: 100.0 mg/kg/injection, schedule: Q01DX005 (ip), vehicle: saline with Tween-80

Measured: T/C

FC(F)(F)C1(C(F)(F)F)OS2(OC1(C(F)(F)F)C(F)(F)F)OC(C(F)(F)F)(C(F)(F)F)C(C(F)(F)F)(C(F)(F)F)O2
inactive: [1] 91 % of control | dose: 200.0 mg/kg/injection, schedule: Q04DX003 (ip), vehicle: Klucel (hydroxypropylcellulose) (HPC) 91 % of control | dose: 400.0 mg/kg/injection, schedule: Q04DX003 (ip), vehicle: Klucel (hydroxypropylcellulose) (HPC) 105 % of control

CCOC/C(=N\NS(=O)(=O)c1ccc(C)cc1)C1(O)Cc2c(O)c3c(c(O)c2C(O)C1)C(=O)c1c(OC)cccc1C3=O (stereo not given)
inactive: dose: 1.56 mg/kg/injection, schedule: Q01DX009 (ip), vehicle: other 100 % of control | dose: 3.13 mg/kg/injection, schedule: Q01DX009 (ip), vehicle: other 100 % of control | dose: 6.25 mg/kg/injection, schedule: Q01DX009 (ip), vehicle: other 103 % of control | dose: 12.5 mg/kg/injection, schedule: Q01DX009 (ip), vehicle: other 107 % of control | dose: 25.0 mg/kg/injection, schedule: Q01DX009 (ip), vehicle: other 94 % of control

CCOC(=O)c1ccc(N(CC(O)CN=[N+]=[N-])S(=O)(=O)c2ccc(C)cc2)cc1 (stereo not given)
inactive: dose: 60.0 mg/kg/injection, schedule: Q01DX005 (ip), vehicle: saline with Tween-80 112 % of control | dose: 120.0 mg/kg/injection, schedule: Q01DX005 (ip), vehicle: saline with Tween-80 102 % of control | dose: 240.0 mg/kg/injection, schedule: Q01DX005 (ip), vehicle: saline with Tween-80 96 % of control

Nc1nc2[nH]ncc2c(=O)[nH]1
inactive: dose: 25.0 mg/kg/injection, schedule: Q01DX009 (ip), vehicle: saline with Tween-80 90 % of control | [2] 100 % of control | dose: 50.0 mg/kg/injection, schedule: Q04DX003 (ip), vehicle: saline with Tween-80 104 % of control | [3] 90 % of control | [4] 109 % of control

CCC(c1ccccc1)(c1ccccc1)c1ccccc1
inactive: [4] 98 % of control | [5] 100 % of control | [6] 94 % of control

O=C(CCN1C(=O)c2ccccc2C1=O)c1cnc[nH]1
inactive: dose: 17.5 mg/kg/injection, schedule: Q01DX005 (ip), vehicle: Klucel (hydroxypropylcellulose) (HPC) 105 % of control | dose: 35.0 mg/kg/injection, schedule: Q01DX005 (ip), vehicle: Klucel (hydroxypropylcellulose) (HPC) 90 % of control | dose: 70.0 mg/kg/injection, schedule: Q01DX005 (ip), vehicle: Klucel (hydroxypropylcellulose) (HPC) 98 % of control

CCC[CH2][Hg][Cl]
inactive: dose: 3.3 mg/kg/injection, schedule: Q01DX009 (ip), vehicle: other 95 % of control | dose: 5.0 mg/kg/injection, schedule: Q01DX009 (ip), vehicle: other 100 % of control | dose: 7.5 mg/kg/injection, schedule: Q01DX009 (ip), vehicle: other 118 % of control

CCc1c(C)c(SC)n(C)c(=O)c1C#N
inactive: dose: 25.0 mg/kg/injection, schedule: Q01DX009 (ip), vehicle: Klucel (hydroxypropylcellulose) (HPC) 99 % of control | dose: 50.0 mg/kg/injection, schedule: Q01DX009 (ip), vehicle: Klucel (hydroxypropylcellulose) (HPC) 100 % of control | dose: 100.0 mg/kg/injection, schedule: Q01DX009 (ip), vehicle: Klucel (hydroxypropylcellulose) (HPC) 97 % of control | dose: 200.0 mg/kg/injection, schedule: Q01DX009 (ip), vehicle: Klucel (hydroxypropylcellulose) (HPC) 91 % of control

Clc1cccc(Cl)c1C(Nc1nc2ccccc2s1)Nc1nc2ccccc2s1
inactive: dose: 50.0 mg/kg/injection, schedule: Q01DX005 (ip), vehicle: Klucel + Tween-80 110 % of control | dose: 100.0 mg/kg/injection, schedule: Q01DX005 (ip), vehicle: Klucel + Tween-80 106 % of control | dose: 200.0 mg/kg/injection, schedule: Q01DX005 (ip), vehicle: Klucel + Tween-80 109 % of control

C=CCOC(=O)CCl
inactive: dose: 25.0 mg/kg/injection, schedule: Q04DX003 (ip), vehicle: Klucel (hydroxypropylcellulose) (HPC) 99 % of control | dose: 50.0 mg/kg/injection, schedule: Q04DX003 (ip), vehicle: Klucel (hydroxypropylcellulose) (HPC) 98 % of control | [1] 93 % of control and 96 % of control

COC(=O)C1CCC2c3ccccc3C(C1)c1ccccc12 (stereo not given)
inactive: [3] 90 % of control | [4] 90 % of control | [7] 118 % of control | [5] 100 % of control | dose: 400.0 mg/kg/injection, schedule: Q01DX009 (ip), vehicle: saline with Tween-80 118 % of control | [6] 100 % of control

Cc1ccc(NC(=O)Oc2ccc(C(C)(C)C)cc2Br)c([N+](=O)[O-])c1
inactive: [2] 96 % of control | [3] 97 % of control | [7] 101 % of control

CC1=C(C(=O)Nc2ccc(C)cc2C)C(c2cccc([N+](=O)[O-])c2)C(C(=O)Nc2ccc(C)cc2C)=C(C)N1
inactive: dose: 7.5 mg/kg/injection, schedule: Q01DX005 (ip), vehicle: Klucel (hydroxypropylcellulose) (HPC) 100 % of control | [8] 94 % of control | [9] 98 % of control

C/C(=N\N=C(\N)N1CCOCC1)c1ccc2c(c1)Cc1c(/C(C)=N/N=C(\N)N3CCOCC3)cccc1-2
inactive: dose: 12.5 mg/kg/injection, schedule: Q04DX002 (ip), vehicle: saline with Tween-80 102 % of control | dose: 25.0 mg/kg/injection, schedule: Q04DX002 (ip), vehicle: saline with Tween-80 97 % of control | dose: 50.0 mg/kg/injection, schedule: Q04DX002 (ip), vehicle: saline with Tween-80 103 % of control

Cc1ccccc1NC(=S)NC1C(=O)Nc2ccccc21 (stereo not given)
inactive: [10] 101 % of control | [11] 107 % of control | dose: 200.0 mg/kg/injection, schedule: Q01DX005 (ip), vehicle: saline with Tween-80 98 % of control

C1OC1C1CO1 (stereo not given)
inactive: dose: 10.0 mg/kg/injection, schedule: Q04DX003 (ip), vehicle: saline 113 % of control | dose: 13.2 mg/kg/injection, schedule: Q01DX009 (ip), vehicle: saline 109 % of control | dose: 20.0 mg/kg/injection, schedule: Q04DX003 (ip), vehicle: saline 113 % of control | dose: 30.0 mg/kg/injection, schedule: Q01DX009 (ip), vehicle: saline 118 % of control | dose: 40.0 mg/kg/injection, schedule: Q01DX009 (ip), vehicle: saline 95 % of control | dose: 40.0 mg/kg/injection, schedule: Q04DX003 (ip), vehicle: saline 109 % of control

Cc1ccc(-c2cc(=O)c3cc(C)c(C)c(C#N)c3o2)cc1
inactive: [8] 94 % of control | [9] 87 % of control and 90 % of control | dose: 60.0 mg/kg/injection, schedule: Q01DX005 (ip), vehicle: Klucel (hydroxypropylcellulose) (HPC) 90 % of control | dose: 120.0 mg/kg/injection, schedule: Q01DX005 (ip), vehicle: Klucel (hydroxypropylcellulose) (HPC) 86 % of control and 88 % of control | dose: 240.0 mg/kg/injection, schedule: Q01DX005 (ip), vehicle: Klucel (hydroxypropylcellulose) (HPC) 96 % of control

O=[N+]([O-])c1ccc(O)c(/C=N\NS(=O)(=O)c2ccc(Cl)cc2)c1
inactive: [10] 108 % of control | [11] 100 % of control

O=C1CCCC1C(=S)S (stereo not given)
inactive: dose: 100.0 mg/kg/injection, schedule: Q04DX003 (ip), vehicle: saline 102 % of control | dose: 200.0 mg/kg/injection, schedule: Q04DX003 (ip), vehicle: saline 102 % of control

O=C(O)/C(=C/c1ccc([N+](=O)[O-])cc1)c1ccccc1
inactive: dose: 50.0 mg/kg/injection, schedule: Q01DX005 (ip), vehicle: Klucel (hydroxypropylcellulose) (HPC) 102 % of control | dose: 100.0 mg/kg/injection, schedule: Q01DX005 (ip), vehicle: Klucel (hydroxypropylcellulose) (HPC) 95 % of control | dose: 200.0 mg/kg/injection, schedule: Q01DX005 (ip), vehicle: Klucel (hydroxypropylcellulose) (HPC) 102 % of control

COP(=O)(O)NS(C)(=O)=O
inactive: dose: 25.0 mg/kg/injection, schedule: Q01DX009 (ip), vehicle: saline 100 % of control | dose: 50.0 mg/kg/injection, schedule: Q01DX009 (ip), vehicle: saline 102 % of control | dose: 100.0 mg/kg/injection, schedule: Q01DX009 (ip), vehicle: saline 103 % of control

COC1C(C)OC(O[C@@H]2C[C@@](C)(O)Cc3cc4c(c(O)c32)C(=O)c2c(O)cc3c(c2C4=O)O[C@@H]2O[C@@]3(C)[C@@H](O)[C@H](N(C)C)[C@H]2O)C(OC)C1(C)OC (stereo not given in full)
inactive: dose: 3.12 mg/kg/injection, schedule: Q01DX009 (ip), vehicle: other 119 % of control
